Consider two compounds from US20160206688A1, “METHODS FOR TREATING BACTEREMIA AND OSTEOMYELITIS USING ORITAVANCIN” (THE MEDICINES COMPANY, priority 2013, published 2016).

The test concerns VRE. In words: Susceptibility of the subject's blood culture isolate (treatment history). It is filed as cell-based. From the text: 11, 2013; the plan was for at least 8 weeks of antibiotic therapy.

Turning to `CN(C)c1cc(NC(=O)CNC(C)(C)C)c(O)c2c1C[C@H]1C[C@H]3[C@H](N(C)C)C(O)=C(C(N)=O)C(=O)[C@@]3(O)C(O)=C1C2=O` [tigecycline], under “2012 July”, the susceptibility entry is reported as “susceptible”. In the case of `CCCCCCCCCCNCCN[C@@]1(C)C[C@H](O[C@H]2[C@H](Oc3c4cc5cc3Oc3ccc(cc3Cl)[C@@H](O)[C@@H](NC(=O)[C@@H](CC(C)C)NC)C(=O)N[C@@H](CC(N)=O)C(=O)N[C@H]5C(=O)N[C@H]3C(=O)N[C@H](C(=O)N[C@H](C(=O)O)c5cc(O)c(CNCP(=O)(O)O)c(O)c5-c5cc3ccc5O)[C@H](O)c3ccc(c(Cl)c3)O4)O[C@H](CO)[C@@H](O)[C@@H]2O)O[C@@H](C)[C@H]1O` [televancin], the susceptibility result (2012 December) is on record as “resistant”.
